As a reminder, the melting point is the temperature, or range, at which the solid turns liquid. A word on the ED50: it is the midpoint of the dose-response relation. Low values mean an effect at a small dose, high ones a need for a large dose.

Here are results for 26 compounds from patent US6573267B2, “Useful aroyl aminoacyl pyrrole compounds” (Ortho-McNeil Pharmaceutical, Inc., priority 2000, dated 2003).

Counter-ions that a name gives are not always drawn. Like-named read-outs stand apart in the source and are kept apart here.

Data set [1] has as its system mechanical allodynia (paw withdrawal threshold). In words: Neuropathic pain model (Chung Model), spinal nerve ligation, mechanical allodynia with von Frey hairs. It is filed as in vivo, Sprague-Dawley rats. The note with it: for inhibition in vivo at 30 mg/kg: read-out: % MPE. As to the method:
Procedure for Testing in a Neuropathic Pain Model
The compounds of the present invention are useful in the treatment of neuropathic pain. The use of the compounds in treating neuropathic pain was determined using an animal model. This model was developed and first described by S. H. Chung and J. M. Chung, An Experimental Model for Peripheral Neuropathy Produced by Segmental Spinal Nerve Ligation in the Rat, Pain, 1992, 50, 355-363 (referred to hereinafter as the “Chung Model”).
Male Sprague-Dawley rats, weighing approximately 200 g each were anesthetized with isoflurane. The spinal nerve at the level of L5 was exposed through an incision just left of the dorsal midline and tightly ligated with 6-0 silk. At various times after surgery, animals were tested for mechanical allodynia with von Frey hairs (monofilaments which are calibrated to bend under a certain amount of pressure, ranging from 0.41 to 15.1 g). In order to calculate a paw withdrawal threshold (PWT), tactile allodynia was measured by recording the pressure at which the affected paw was withdrawn from graded stimuli according to the procedure of S. R. Chaplan, J. W. Pogrel, T. L. Yaksh, Role of Voltage-Dependent Calcium Channel Subtypes in Experimental Tactile Allodynia, J. Pharmacol. Exp. Ther. 1994, 269,1117-1123. Normal rats can withstand at least 15 g of pressure without responding. Operated rats, however, can respond to as little as 0.25 g of pressure. The surgery was deemed successful if the animal responded with a PWT of less than 4 g of pressure applied to the affected paw.
The sham operation consisted of a similar surgery; the spinal nerve was visualized without being ligated. […] The results of the assay were expressed as percent of the maximum possible effect (% MPE), calculated as the PWT at the time of testing minus the baseline PWT divided by the maximum PWT (15 g) minus the baseline PWT times 100.
The compounds having Formula (I) and Formula (II) were tested for activity against neuropathic pain by being dissolved or suspended in either water or hydroxypropyl methylcellulose, respectively. Postoperative animals between 14 to 42 days were fasted overnight prior to dosing. Animals were orally dosed and dosage volumes were calculated on a 4 mL/kg basis. The screening dose employed was 30 mg/kg.

The subject of data set [2] is toxic extensor seizure (maximal electroshock test). Briefly: Mouse anticonvulsant model, maximal electroshock test (MES). It is filed as in vivo. Particulars: for ED50: ip; for MES ED50 (Active @ 30): active at dose 30; for MES ED50 (Active @ 100): active at dose 100. The method, then: Procedure for Testing in Mouse Anticonvulsant Model
The compounds of Formula (I) and Formula (II) are useful as anticonvulsant agents. The anticonvulsant activity of the subject compounds was determined using a standard “maximal electroshock test” (MES). In this test, activity is indicated by a block of the toxic extensor seizure, as described by Swinyard, et al., in J. PharmacoL Exptl. Therap., 106, 319 (1952). A more recent description of current anticonvulsant drug screening is given in Swinyard, et al., in Epilepsia, 19, 409 (1978).
The anticonvulsant activity of compounds of this invention tested according to the Swinyard (1952) method are shown in Table 3, having values for the Mouse MES Model in ED50 per dose (in mg/kg, i.p.).
On the technique in general: Protection in the maximal electroshock model is a classic sign of anticonvulsant action.

[3] abbreviates: Chung Model rat, antiallodynic activity, oral screening dose 30 mg/kg.

On to `CCN(CC)CC(=O)c1cc(C(=O)c2cccs2)cn1C` (as salt: HCl) [Cpd 2, 1-[4-(2-Thienoyl)-1-methyl-1H-pyrrol-2-yl]-2-(N,N-diethylamino)ethanone], for which the melting point lay within 196 to 198 °C.
The same measure, in the same setting: in the case of `CCN(CC)CC(=O)c1cc(C(=O)c2cccc3ccccc23)cn1C` (as salt: HCl) [Cpd 3, 1-[4-(1-Naphthalenoyl)-1-methyl-1H-pyrrol-2-yl]-2-(N,N-diethylamino)ethanone] it was 222 to 224 °C.
Same read-out and setting: in the case of `Cn1cc(C(=O)c2cccc3ccccc23)cc1C(=O)CN1CCCCC1` (as salt: HCl) [Cpd 4, 1-[4-(1-Naphthalenoyl)-1-methyl-1H-pyrrol-2-yl]-2-(1-piperidinyl)ethanone] it was 246 to 248 °C.
`CC(N(C)C)n1cc(C(=O)c2ccc3ccccc3c2)cc1C(=O)CN1CCCCC1` (stereo not shown) (as salt: HCl) [Cpd 5, 1-[4-(2-Naphthalenoyl)-1-(N,N-dimethylaminoeth-2-yl)-1H-pyrrol-2-yl]-2-(1-piperidinyl)ethanone] had a melting point of 239 to 242 °C.
Still for that read-out and setting: in the case of `Cn1cc(C(=O)CCN2CCCCC2)cc1C(=O)c1cccc2ccccc12` (as salt: HCl) [Cpd 8, 1-[5-(1-Naphthalenoyl)-1-methyl-1H-pyrrol-3-yl]-3-(1-piperidinyl)-1-propanone] it was 141 to 143 °C; in that of `CCCOn1cc(C(=O)CN(CC)CC)cc1C(=O)c1ccc(Cl)cc1` (as salt: HCl) [Cpd 9, 1-[5-(4-Chlorobenzoyl)-1-ethylmethoxy-1H-pyrrol-3-yl]2-[N,N-diethylamino]ethanone], 149 to 151 °C; in that of `CCN(CC)CC(=O)c1cc(C(=O)c2cccnc2)n(C)c1` (as salt: HCl) [Cpd 12, 1-[5-(3-Pyridinoyl)-1-methyl-1H-pyrrol-3-yl]-2-(N,N-diethylamino)ethanone], 158 to 160 °C (dec.).
In turn, `CCN(CC)CC(=O)c1cc(C(=O)c2ccc3ccccc3c2)n(C)c1` (as salt: HCl) [Cpd 13, 1-[5-(2-Naphthalenoyl)-1-methyl-1H-pyrrol-3-yl]-2-(N,N-diethylamino)ethanone] came in with a melting point of 195 to 196 °C.
Compound `CCC(N(C)C)n1cc(C(=O)CN2CCCCC2)cc1C(=O)c1ccc(Cl)cc1` (stereo not shown) (as salt: HCl) [Cpd 14, 1-[5-(4-Chlorobenzoyl)-1-(N,N-dimethylaminoprop-3-yl) -1H-pyrrol-3-yl]-2-(1-piperidinyl)ethanone] returned a melting point of 138 to 141 °C.
Same read-out and setting: in the case of `CCSCn1cc(C(=O)CN(CC)CC)cc1C(=O)c1ccccc1Cl` (as salt: HCl) [Cpd 16, 1-[5-(2-Chlorobenzoyl)-1-ethylthiomethyl-1H-pyrrol-3-yl]-2-(N,N-diethylamino)ethanone] it was 157 to 158 °C; in that of `Cn1cc(C(=O)c2ccc3ccccc3c2)cc1C(=O)CN1CCCCC1` (as salt: HCl) [Cpd 17, 1-[4-(2-Naphthalenoyl)-1-methyl-1H-pyrrol-2-yl]-2-(1-piperidinyl)ethanone], 246 to 248 °C; in that of `CCN(CC)CC(=O)c1cc(C(=O)c2ccc3ccccc3c2)cn1C` (as salt: fumarate) [Cpd 1, 1-[4-(2-Naphthalenoyl)-1-methyl-1H-pyrrol-2-yl]-2-(N,N-diethylamino)ethanone], 130 to 132 °C.
In turn, `CCN(CC)CC(=O)c1cc(C(=O)c2cccs2)n(C)c1` (as salt: salt) [Cpd 10, 1-[5-(2-Thienoyl)-1-methyl-1H-pyrrol-3-yl]-2-(N,N-diethylamino)ethanone] returned a melting point of 153 to 155 °C.
In the case of `CCN(CC)CC(=O)c1cc(C(=O)c2ccc3ccccc3c2)cn1C` [Cpd 1, 1-[4-(2-Naphthalenoyl)-1-methyl-1H-pyrrol-2-yl]-2-(N,N-diethylamino)ethanone], in data set [1] (setting [3]), the inhibition in vivo at 30 mg/kg worked out at 80%. Also, in data set [2], the 50% effect level (ED50) was put at a dose of 11 mg/kg.
`CCN(CC)CC(=O)c1cc(C(=O)c2cccs2)cn1C` [Cpd 2, 1-[4-(2-Thienoyl)-1-methyl-1H-pyrrol-2-yl]-2-(N,N-diethylamino)ethanone]: the inhibition in vivo at 30 mg/kg in data set [1] (setting [3]) was determined as 14%. Besides, the “MES ED50 (Active @ 30)” value in data set [2] (i.p.) is recorded as “Active @ 30”.
Take `CCN(CC)CC(=O)c1cc(C(=O)c2cccc3ccccc23)cn1C` [Cpd 3, 1-[4-(1-Naphthalenoyl)-1-methyl-1H-pyrrol-2-yl]-2-(N,N-diethylamino)ethanone]: in data set [1] (Rattus norvegicus, po), the inhibition in vivo at 30 mg/kg is 87%. In data set [2] (i.p.), the “MES ED50 (Active @ 30)” value was “Active @ 30”.
Take `Cn1cc(C(=O)c2cccc3ccccc23)cc1C(=O)CN1CCCCC1` [Cpd 4, 1-[4-(1-Naphthalenoyl)-1-methyl-1H-pyrrol-2-yl]-2-(1-piperidinyl)ethanone]: the inhibition in vivo at 30 mg/kg in data set [1] (Rattus norvegicus, po) is 12%. In data set [2] (i.p.), the “MES ED50 (Active @ 30)” value was “Active @ 30”.
Take `CCN(CC)CC(=O)c1cc(-c2ccc(Cl)s2)n(C)c1` [Cpd 6, 1-[5-(5-Chlorothieno-2-yl)-1-methyl-1H-pyrrol-3-yl]-2-(N,N-diethylamino)ethanone]: the “% MPE” value in data set [1] (setting [3]) amounted to 54 % MPE. For the same compound, the “MES ED50 (Active @ 30)” value in data set [2] (i.p.) is listed as “Active @ 30”.
`CN1CCN(CC(=O)c2cc(C(=O)c3ccc(Cl)cc3)n(C)c2)CC1` [Cpd 7, 1-[5-(4-Chlorobenzoyl)-1-methyl-1H-pyrrol-3-yl]-2-(4-methyl-1-piperazinyl)ethanone]: in data set [1] (setting [3]), the inhibition in vivo at 30 mg/kg was determined as 21%. Besides, the median effective dose (ED50) in data set [2] turned out to be 16.6 mg/kg.
Consider `Cn1cc(C(=O)CCN2CCCCC2)cc1C(=O)c1cccc2ccccc12` [Cpd 8, 1-[5-(1-Naphthalenoyl)-1-methyl-1H-pyrrol-3-yl]-3-(1-piperidinyl)-1-propanone], for which the inhibition in vivo at 30 mg/kg in data set [1] (Rattus norvegicus, po) was 25%. The “MES ED50 (Active @ 30)” value in data set [2] (i.p.) is reported as “Active @ 30”.
With `CCCOn1cc(C(=O)CN(CC)CC)cc1C(=O)c1ccc(Cl)cc1` [Cpd 9, 1-[5-(4-Chlorobenzoyl)-1-ethylmethoxy-1H-pyrrol-3-yl]2-[N,N-diethylamino]ethanone], the inhibition in vivo at 30 mg/kg in data set [1] (setting [3]) came to 5%. Further, the “MES ED50 (Active @ 100)” value in data set [2] (i.p.) is listed as “Active @ 100”.
On to `CCN(CC)CC(=O)c1cc(C(=O)c2cccs2)n(C)c1` [Cpd 10, 1-[5-(2-Thienoyl)-1-methyl-1H-pyrrol-3-yl]-2-(N,N-diethylamino)ethanone], for which, in data set [1] (setting [3]), the inhibition in vivo at 30 mg/kg amounted to 0%. The “MES ED50 (Active @ 100)” value in data set [2] (i.p.) is given as “Active @ 100”.
`Cn1cc(C(=O)CN2CCCCC2)cc1C(=O)c1cccs1` [Cpd 11, 1-[5-(2-Thienoyl)-1-methyl-1H-pyrrol-3-yl]-2-(1-piperidinyl)ethanone] gave a melting point of 178 to 179 °C. The inhibition in vivo at 30 mg/kg in data set [1] (setting [3]) turned out to be 34%. Besides, the “MES ED50 (Active @ 30)” value in data set [2] (i.p.) is “Active @ 30”.
For `CCN(CC)CC(=O)c1cc(C(=O)c2cccnc2)n(C)c1` [Cpd 12, 1-[5-(3-Pyridinoyl)-1-methyl-1H-pyrrol-3-yl]-2-(N,N-diethylamino)ethanone], the inhibition in vivo at 30 mg/kg in data set [1] (setting [3]) is 4%. Further, the “MES ED50 (Active @ 100)” value in data set [2] (i.p.) is given as “Active @ 100”.
Regarding `CCN(CC)CC(=O)c1cc(C(=O)c2ccc3ccccc3c2)n(C)c1` [Cpd 13, 1-[5-(2-Naphthalenoyl)-1-methyl-1H-pyrrol-3-yl]-2-(N,N-diethylamino)ethanone], the inhibition in vivo at 30 mg/kg in data set [1] (setting [3]) was found to be 80%. The “MES ED50 (Active @ 300)” value in data set [2] (i.p., active at dose 300) is “Active @ 300”.
As for `CCN(C)CC(=O)c1cc(C(=O)c2ccc3ccccc3c2)n(C)c1` [Cpd 15, 1-[5-(2-Naphthalenoyl)-1-methyl-1H-pyrrol-3-yl]-2-(N,N-ethylmethylamine)ethanone], the “% MPE” value in data set [1] (setting [3]) turned out to be 40 % MPE. For the same compound, the “MES ED50 (Active @ 30)” value in data set [2] (i.p.) was “Active @ 30”.
